# Assay results published in patent publication US20190185567A1, “COMBINATIONS FOR THE TREATMENT OF CANCER” (IGNYTA, INC., priority 2016, published 2019).
# How the values were obtained:
# 4T1-Luc2-1A4 cells = assay: 4T1-Luc2-1A4 mammary fat pad tumor model: tumor burden by caliper and BLI, metastases; assay type: in vivo, Balb/c mice; settings: once daily for 15 days (Days 3-17); for Day 14 T/C (whole body BLI) / Day 14 median T/C (caliper measurements): p>0.05
# Protocol: Female Envigo Balb/c mice (BALB/cAnNHsd) were used in this study. They were 6-7 weeks old on day 1 of the experiment. The animals were fed irradiated Harlan 2918.15 Rodent Diet and water ad libitum. Animals were housed in static cages with Bed-O'Cobs™ bedding inside Biobubble® Clean Rooms that provide H.E.P.A filtered air into the bubble environment at 100 complete air changes per hour. All treatments, imaging, body weight determinations, and tumor measurements were carried out in the bubble environment. The environment was controlled to a temperature range of 70°±2° F. and a humidity range of 30-70%.
# 4T1-Luc2-1A4 cells were obtained from PerkinElmer. They were grown in RPMI 1640 medium which was modified with 1% 100 mM Na pyruvate, 1% 1M HEPES buffer, 2.5 g/L glucose solution and supplemented with 10% non-heat-inactivated Fetal Bovine Serum (FBS) and 1% 100X Penicillin/Streptomycin/L-Glutamine (PSG). The growth environment was maintained in an incubator with a 5% CO2 atmosphere at 37° C. When expansion was complete, the cells (passage 5) were trypsinized using 0.25% trypsin-EDTA solution. Following cell detachment, the trypsin was inactivated by dilution with complete growth medium and any clumps of cells were separated by pipetting. The cells were centrifuged at 200 rcf for 8 minutes at 8° C., the supernatant was aspirated, and the pellet was re-suspended in cold Dulbecco's Phosphate Buffered Saline (DPBS) by pipetting. An aliquot of the homogeneous cell suspension was diluted in a trypan blue solution and counted using a Luna automated cell counter. The pre-implantation cell viability was 95%. The cell suspension was centrifuged at 200 rcf for 8 minutes at 8° C. The supernatant was aspirated and the cell pellet was re-suspended in cold 50% serum-free medium 50% Matrigel® to generate a final concentration of 1.0E+07 trypan-excluding cells/mL. The cell suspension was maintained on wet ice during implantation. Following implantation, an aliquot of the remaining cells was diluted with a trypan blue solution and counted to determine the post-implantation cell viability (95%).
# Test animals were implanted subcutaneously into the mammary fat pad (MFP#4) on Day 0 with 5.0E+05 cells in 50 μL of serum free media in 50% Matrigel® using a 27-gauge needle and 1 mL syringe.
# All mice were sorted into study groups based on body weight. The mice were distributed to ensure that the mean body weight for all groups was within 10% of the overall mean for the study population (group range 16.8-17.2 g). Treatment began on Day 3, prior to the tumors being palpable. All mice were dosed 0.2 mL/20 g. • Group 1: Vehicle Control (50% PEG400; 50% oleic acid) PO, once daily for 15 days (Days 3-17); • Group 2: N-[4-[(6,7-dimethoxy-4-quinolinyl)oxy]-3-fluorophenyl]-3-(4-fluorophenyl)-1,2,3,4-tetrahydro-1-(1-methylethyl)-2,4-dioxo-5-pyrimidinecarboxamide, 30 mg/kg PO, once daily for 15 days (Days 3-17); • Group 3: N-[4-[(6,7-dimethoxy-4-quinolinyl)oxy]-3-fluorophenyl]-3-(4-fluorophenyl)-1,2,3,4-tetrahydro-1-(1-methylethyl)-2,4-dioxo-5-pyrimidinecarboxamide, 10 mg/kg PO, once daily for 15 days (Days 3-17); • Group 4: N-[4-[(6,7-dimethoxy-4-quinolinyl)oxy]-3-fluorophenyl]-3-(4-fluorophenyl)-1,2,3,4-tetrahydro-1-(1-methylethyl)-2,4-dioxo-5-pyrimidinecarboxamide, 1 mg/kg PO, once daily for 15 days (Days 3-17); • Group 5: anti-CTLA-4 clone 9D9 antibody, 10 mg/kg IP, every third day for 2 treatments, then a 3 day rest for 2.5 weeks (Days 3, 6, 10, 13, 17) • Group 6: anti-CTLA-4 clone 9D9 antibody, 10 mg/kg IP, every third day for 2 treatments, then a 3 day rest for 2.5 weeks (Days 3, 6, 10, 13, 17), plus N-[4-[(6,7-dimethoxy-4-quinolinyl)oxy]-3-fluorophenyl]-3-(4-fluorophenyl)-1,2,3,4-tetrahydro-1-(1-methylethyl)-2,4-dioxo-5-pyrimidinecarboxamide, 30 mg/kg PO, once daily for 15 days (Days 3-17). […]
# [1] = system: hematopoietic cell subsets; assay: Hematopoietic cell subset mean percentages in tumor and spleen, subjective comparison to the Control Group; assay type: in vivo, Balb/c mice; settings: once daily (Days 3-17); for CD45+ cells that expressed PD-L1, increase vs Control Group: spleen
# [2] = Assessment of side effects (tolerability, mortality, body weight); assay type: in vivo; settings: once daily for 15 days (Days 3-17); for mean body weight loss: highest at study termination
# Protocol: Animals were weighed on each day of treatment. Individual body weights were recorded three times weekly.
# In this report, a dosage level is described as tolerated if treatment-related weight loss (during and two weeks after treatment) is <20% and mortality during this period in the absence of potentially lethal tumor burdens is <10%.
# Upon death or euthanasia, all animals were necropsied to provide a general assessment of potential cause of death and perhaps target organs for toxicity. The presence or absence of metastases was also noted.
compound,measurement,setting,value
"COc1cc2nccc(Oc3ccc(NC(=O)c4cn(C(C)C)c(=O)n(-c5ccc(F)cc5)c4=O)cc3F)c2cc1OC [N-[4-[(6,7-dimethoxy-4-quinolinyl)oxy]-3-fluorophenyl]-3-(4-fluorophenyl)-1,2,3,4-tetrahydro-1-(1-methylethyl)-2,4-dioxo-5-pyrimidinecarboxamide]",incidence of ex vivo lung metastases,4T1-Luc2-1A4 cells; 1 mg/kg PO,100%
same,tumor free survivors,4T1-Luc2-1A4 cells; 1 mg/kg PO,0%
same,incidence of axillary lymph node metastases based on in vivo imaging,"4T1-Luc2-1A4 cells; 1 mg/kg PO, 8/14",57%
same,Day 14 T/C (whole body BLI),4T1-Luc2-1A4 cells; 1 mg/kg PO,139%
same,Day 14 median T/C (caliper measurements),4T1-Luc2-1A4 cells; 1 mg/kg PO,131%
same,incidence of ex vivo lung metastases,4T1-Luc2-1A4 cells; 10 mg/kg PO,100%
same,tumor free survivors,4T1-Luc2-1A4 cells; 10 mg/kg PO,0%
same,incidence of axillary lymph node metastases based on in vivo imaging,"4T1-Luc2-1A4 cells; 10 mg/kg PO, 2/14",14%
same,Day 14 T/C (whole body BLI),4T1-Luc2-1A4 cells; 10 mg/kg PO,133%
same,Day 14 median T/C (caliper measurements),4T1-Luc2-1A4 cells; 10 mg/kg PO,100%
same,incidence of ex vivo lung metastases,4T1-Luc2-1A4 cells; 30 mg/kg PO,100%
same,tumor free survivors,4T1-Luc2-1A4 cells; 30 mg/kg PO,no tumor free survivors
same,incidence of axillary lymph node metastases based on in vivo imaging,"4T1-Luc2-1A4 cells; 30 mg/kg PO, 3/14",21%
same,Day 14 T/C (whole body BLI),4T1-Luc2-1A4 cells; 30 mg/kg PO,54%
same,Day 14 median T/C (caliper measurements),4T1-Luc2-1A4 cells; 30 mg/kg PO,55%
same,"NK cells that produced IFN-γ upon ex-vivo re-stimulation, increase vs Control Group","[1]; NK cells isolated from spleens, 30 mg/kg PO",22%
same,"NK cells that produced IFN-γ upon ex-vivo re-stimulation, increase vs Control Group","[1]; NK cells isolated from tumors, 30 mg/kg PO",75%
same,"CD45+ cells that expressed PD-L1, increase vs Control Group",[1]; 10 mg/kg PO,8%
same,"CD45+ cells that expressed PD-L1, increase vs Control Group",[1]; 30 mg/kg PO,16%
same,"CD45+ cells expressing PD-L1, reduction vs Control Group","[1]; tumor, 1 mg/kg PO",14%
same,"CD4+ T subset as a percent of total T cells, reduction vs Control Group","[1]; tumor, 10 mg/kg PO",51%
same,"CD45+ cells expressing PD-L1, reduction vs Control Group","[1]; tumor, 10 mg/kg PO",5%
same,"Treg subset as a percent of total T cells, reduction vs Control Group","[1]; tumor, 10 mg/kg PO",61%
same,"Tumor-derived cells that expressed CD45, increase vs Control Group","[1]; tumor, 10 mg/kg PO",18%
same,"CD4+ T subset as a percent of total T cells, reduction vs Control Group","[1]; tumor, 30 mg/kg PO",54%
same,"G-MDSC subset, reduction vs Control Group","[1]; tumor, 30 mg/kg PO",18%
same,"M2 MAC subset, increase vs Control Group","[1]; tumor, 30 mg/kg PO",72%
same,"Treg subset as a percent of total T cells, reduction vs Control Group","[1]; tumor, 30 mg/kg PO",69%
same,"Tumor-derived cells that expressed CD45, increase vs Control Group","[1]; tumor, 30 mg/kg PO",14%
same,tolerability,[2]; 1 mg/kg PO,well-tolerated
same,treatment-related mortality,[2]; 1 mg/kg PO,no treatment-related mortality
same,mean body weight loss,[2]; 1 mg/kg PO,2.1%
same,tolerability,[2]; 10 mg/kg PO,well-tolerated
same,treatment-related mortality,[2]; 10 mg/kg PO,no treatment-related mortality
same,mean body weight loss,[2]; 10 mg/kg PO,4.2%
same,body weight change,[2]; 30 mg/kg PO,body weight gain
same,tolerability,[2]; 30 mg/kg PO,well-tolerated
same,treatment-related mortality,[2]; 30 mg/kg PO,no treatment-related mortality
